The subject of data set [1] is CHO TAX 5-6 cells. The experiment in a line: MTT cytotoxicity on taxol-resistant CHO cells expressing mutated tubulin. In kind it is cell-based, Chinese hamster. Conditions: Cricetulus griseus, CHO-TAX 5-6, 120 h, read-out: IC50 CHO TAX 5-6. As to the method: (§1) Human breast carcinoma cell line, MDA-MB-231, was obtained from the American Type Culture Collection (ATCC HTB-26; Bethesda, Md.). MDA-MB-231 cells were grown in RPMI 1640 medium supplemented with 10% bovine calf serum (Hyclone, Road Logan, Utah). […] These cells were cultured in RPMI 1640 containing 10% fetal bovine serum. SK—N—SH human neuroblastoma cells, (ATCC HTB-11; Bethesda, Md.) were cultured in MEM medium supplemented with 2 mM L-glutamine, 1.5 g/liter sodium bicarbonate, 0.1 mM non-essential amino acids, 1 mM sodium pyruvate and 10% fetal bovine serum. Cells were cultured in a humidified atmosphere at 37° C. in 5% CO2.
(§2) Cytotoxicity was assessed using the MTT assay (3-(4,5-dimethylthiazol-2-yl)-2,5-diphenyltetrazolium bromide) as described by Carmichael et al. (12).
(§3) The cytotoxicity of 4-tBCEU, 4-iPCEU and 4-sBCEU in two CHO cell lines having differential sensitivity to antmicrotubule agents was evaluated. These cell lines are derived from parental CHO-10001 cells and express mutated tubulins.

Data set [2] has as its system CHO 10001 cells (wild-type). As to the kind of experiment: MTT cytotoxicity on wild-type CHO cells. Conditions: Cricetulus griseus, CHO10001, 120 h, read-out: IC50 CHO 10001. In kind it is cell-based, Chinese hamster. Here is the method: as §1, §2, §3
In data set [3] the test system is CHO VV 3-2 cells. The experiment in a line: MTT cytotoxicity on vinblastine- and colchicine-resistant CHO cells expressing mutated tubulin. Conditions: Cricetulus griseus, CHO-VV 3-2, 120 h, read-out: IC50 CHO VV 3-2. In kind it is cell-based, Chinese hamster. As to the method: as §1, §2, §3
The test system of data set [4] is MDA-MB-231 cells. The experiment in a line: cells. In kind it is cell-based, human. As to the method: Human breast carcinoma cell line, MDA-MB-231, was obtained from the American Type Culture Collection (ATCC HTB-26; Bethesda, Md.). MDA-MB-231 cells were grown in RPMI 1640 medium supplemented with 10% bovine calf serum (Hyclone, Road Logan, Utah). Wild-type Chinese Hamster Ovary cells (CHO-10001) (7), colchicine- and vinblastine-resistant (CHO-VV 3-2) (8) and taxol-resistant (CHO-TAX 5-6) cells (9) were generously provided by Dr. Fernando Cabral (University of Texas Medical School, Houston, Tex.). These cells were cultured in RPMI 1640 containing 10% fetal bovine serum. SK—N—SH human neuroblastoma cells, (ATCC HTB-11; Bethesda, Md.) were cultured in MEM medium supplemented with 2 mM L-glutamine, 1.5 g/liter sodium bicarbonate, 0.1 mM non-essential amino acids, 1 mM sodium pyruvate and 10% fetal bovine serum. Cells were cultured in a humidified atmosphere at 37° C. in 5% CO2.
as §2

For data set [5], the system named is MDA-MB-231 cells. The experiment in a line: Cell cycle analysis by propidium iodide flow cytometry. In kind it is cell-based, human. Conditions: for speed of induction of cell cycle arrest in G2+M compared with 4-tBCEU: 30 μM, 24 or 48 h; for accumulation of cells in G2+M: CEU derivatives at 30 μM, 24 h, flow cytometry. Here is the method:
FIG. 1. Effect of CEU derivatives on cell cycle. Exponentially growing MDA-MB-231 cells were incubated in the absence or presence of 30 μM of either 4-tBCEU, 4-iPCEU or 4-sBCEU for 24 and 48 h, respectively, at 37° C. The cell cycle was evaluated using propidium iodide staining and flow cytometric analysis. Data are representative of three independent experiments.
Following incubation of MDA-MB-231 cells with 4-tBCEU, 4-iPCEU or 4-sBCEU, the cells were harvested, resuspended in 1 ml PBS and fixed by the addition of 2.4 ml of ice cold anhydrous ethanol. Then, 5×10^5 cells from each sample were centrifuged for 3 min at 1000×g. Cell pellets were resuspended in PBS containing 50 μg/ml of PI and 40 U/ml of ribonuclease A (Boehringer Mannheim, Laval, Calif.). Mixtures were incubated at room temperature for 30 min and cell cycle distribution was analyzed using an Epics Elite ESP flow cytometer (Coulter Corporation, Miami, Fla., USA).
The effect of CEU, namely 4-tBCEU, 4-PCEU and 4-sBCEU, on the cell cycle was analyzed. To this end, exponentially growing MDA-MB-231 cells were treated with 30 μM 4-tBCEU, 4-iPCEU or 4-sBCEU for 24 or 48 h followed by an evaluation of cell cycle distribution by flow cytometry using propidium iodide, a fluorescent DNA dye. […] Induction of mitosis blockage in prophase by CEU derivatives was confirmed by mitotic index analysis as described by Drouin (22).
(In general: In flow cytometry, cells or beads pass a laser one at a time.)

For data set [6], the system named is β-tubulin. The experiment in a line: Separation of soluble and polymerized tubulins, Western blot of β-tubulin. In kind it is cell-based, human. Conditions: MDA-MB-231 cells, 30 μM, 24 h and 48 h; for formation of modified β-tubulin (second immunoreactive band of lower Mr): free tubulin fraction. As to the method: FIG. 2. Effects of CEU derivatives on microtubule depolymerization. Exponentially growing MDA-MB-231 cells were incubated in the absence or the presence of 30 μM of CEU derivatives including (A) 4-tBCEU, 4-iPCEU or 4-sBCEU for 24 and 48 h respectively; (B) 2-ECEU, 3-ECEU or 4-ECEU for 24 and 48 h; and (C) 4-tBEU, 4-iPEU, 4-sBEU, 4-tBCPU, CEU or 4-methoxyCEU for 48 h. Free tubulin and microtubule fractions were isolated and analyzed by Western blot. Data are representative of three different experiments.
Separation of soluble and polymerized tubulins from MDA-MB231 cells was carried out as described by Minotti et al. (14) with minor modifications. Briefly, after drug exposure, about 5×10^6 cells in 100-mm petri dishes were washed with PBS at 37° C. and harvested in 3 ml of PBS containing 0.4 μg/ml of taxol using a rubber policeman.
Cells were centrifuged and lysed using 250 μl of microtubule-stabilizing buffer (20 mM Tris-HCl, pH 6.8, 140 mM NaCl, 1 mM MgCl2, 2 mM EDTA, 0.5% Nonidet P-40 and 0.4 μg/ml taxol), and then transferred to 1.5 ml microcentrifuge tubes. Samples were centrifuged at 12,000×g for 10 min at 4° C. and the supernatants containing soluble tubulin were placed in separate microcentrifuge tubes containing 250 μl of 2× Laemmli sample buffer (15). Pellets containing the polymerized tubulin were resuspended in 250 μl of water, followed by two freeze/thawing cycles, and the addition of 250 μl of 2× Laemmli sample buffer. Samples were analyzed by SDS-PAGE and immunoassay was performed as described below.
Samples (1×10^5 cells) were analyzed by 10% SDS-PAGE using the Laemmli system (15). Membranes were then incubated with PBSMT (PBS, pH 7.4, 5% fat-free dry milk and 0.1% Tween-20) for 1 h at room temperature, and then with 1:500 monoclonal anti-β-tubulin (clone TUB 2.1, Sigma) or 1:400 anti (clone no. SDL.3D10, Sigma) for 1 h. […] Membranes were washed with PBSMT and incubated with 1:2500 peroxidase-conjugated anti-mouse immunoglobulin (Amersham Canada, Oakville, Canada) in PBSMT for 30 min. Detection of the immunoblot was carried out with the ECL Western blotting detection reagent kit (Amersham Canada, Oakville, Canada).
On the technique in general: In western blotting, separated proteins are transferred to a membrane and probed.

Data set [7] can be described thus: Kinetics of alkylation of 4-(4-nitrobenzyl)pyridine (colorimetric assay). In kind it is physicochemical. Conditions: 80° C., pH 4.3, absorbance at 570 nm, linear regression, mean ± SD. Here is the method:
The rate constant of alkylation (K′) of CEU derivatives and chlorambucil was evaluated by a […] assay as described by Bardos et al (13). Briefly, 1 ml of a 10% (v/v) solution of 4-(4-nitrobenzyl)pyridine in ethanol and 1 ml of 50 mM sodium acetate (pH 4.3) were added to an ethanol solution (95%) containing 400 nmol per ml of either chlorambucil or CEU and heated to 80° C. in a shaking water bath for 60, 90, 120 or 150 min. The reaction was stopped by cooling the mixtures on ice for 5 min. Then, 1.5 ml of 0.1 M KOH: ethanol (1:2, v/v) were added to the reaction mixture. Samples were vortexed for 12 sec and set aside for 2.5 min prior to reading the absorbance at 570 nm. The values were compared with those obtained using a blank sample containing all reagents except the alkylating agent.

[8] abbreviates: Homo sapiens, MDA-MB-231, concentration inhibiting 50% of cell growth, MTT assay, mean ± SD, read-out: IC50 (μM) MDA-MB-231.
The mark [9] stands for this setting: concentration inhibiting 50% of cell growth, MTT assay, mean ± SD, read-out: IC50 (μM) MDA-MB-231.

Entries after “also recorded” stand apart in the source; their conditions may differ. Read-outs that look alike come from different tables or passages of the source. Marks after values point to notes of the source that are not given here.

As for `CCC(C)c1ccc(NC(=O)NCCCl)cc1` (stereo not drawn) [Example 4-sBCEU, 4-sec-butyl[3-(2-chloroethyl)ureido]benzene], the 50% inhibitory concentration (IC50) in data set [1] was found to be 2.1 ± 0.1 µM; in data set [2] it was 5 ± 0.2 µM; in data set [3] it was 8.2 ± 0.4 µM; in data set [4] (setting [8]), 2 µM; in data set [4] (setting [9]), 2.3 ± 0.1 µM. Also, in data set [4], the “cytotoxicity in words (active / inactive CEU)” value was “active”. In addition, the “speed of induction of cell cycle arrest in G2+M compared with 4-tBCEU” value in data set [5] was “more rapidly”. The “accumulation of cells in G2+M” value in data set [5] is listed as “significant accumulation of cells in the G2+M”. For the same molecule, in data set [6], the microtubule depolymerization result is “complete microtubule depolymerization”. Also, the “formation of modified β-tubulin (second immunoreactive band of lower Mr)” value in data set [6] is given as “second immunoreactive band; also recorded: slighly faster than for 4-tBCEU”. In addition, the “K′ (constant of alkylation of 4-(4-nitrobenzyl)pyridine)” value in data set [7] was 3.1 ± 0.3^a.

As for `O=C(O)CCCc1ccc(N(CCCl)CCCl)cc1` [CBL, Chlorambucil, reference compound], the IC50 in data set [4] (Homo sapiens, MDA-MB-231, read-out: IC50 (μM) MDA-MB-231) amounted to 9.3 ± 3.5 µM. Further, the “K′ (constant of alkylation of 4-(4-nitrobenzyl)pyridine)” value in data set [7] is reported as 38.9 ± 5.1^a.

As to `CC(C)c1ccc(NC(=O)NCCCl)cc1` [Example 4-iPCEU, 4-iso-propyl[3-(2-chloroethyl)ureido]benzene], the IC50 in data set [1] was found to be 2 ± 0.1 µM; in data set [2] it was 4.4 ± 0.2 µM; in data set [3], 7.7 ± 0.4 µM; in data set [4] (setting [8]) it was 2 µM; in data set [4] (setting [9]), 2.2 ± 0.3 µM. Further, in data set [4], the “cytotoxicity in words (active / inactive CEU)” value was “active”. Also, the “speed of induction of cell cycle arrest in G2+M compared with 4-tBCEU” value in data set [5] was “more rapidly”. Further, the “accumulation of cells in G2+M” value in data set [5] is given as “significant accumulation of cells in the G2+M”. Moreover, the microtubule depolymerization entry in data set [6] is listed as “complete microtubule depolymerization”. In addition, the “formation of modified β-tubulin (second immunoreactive band of lower Mr)” value in data set [6] is listed as “second immunoreactive band; also recorded: slighly faster than for 4-tBCEU”. Besides, in data set [7], the “K′ (constant of alkylation of 4-(4-nitrobenzyl)pyridine)” value is given as 3.0 ± 0.1^a.

As usually defined, the IC50 is the point on the concentration scale where inhibition reaches its midpoint.

Source of the values: US20050250853A1, “Beta-tubulin inhibitors” (priority 1999, published 2005).
